According to patent publication US20160130278A1 (TAISHO PHARMACEUTICAL CO., LTD, priority 2013, published 2016):
pIC50: −log10 of the molar value.

Target: T1, human type 1 glycine transporter (GlyT1) (Homo sapiens, UniProt P48067)
T1 construct: T98G cells (glioma cells) expressing human type 1 glycine transporter (GlyT1) were used
T1 sequence (P48067 1-706): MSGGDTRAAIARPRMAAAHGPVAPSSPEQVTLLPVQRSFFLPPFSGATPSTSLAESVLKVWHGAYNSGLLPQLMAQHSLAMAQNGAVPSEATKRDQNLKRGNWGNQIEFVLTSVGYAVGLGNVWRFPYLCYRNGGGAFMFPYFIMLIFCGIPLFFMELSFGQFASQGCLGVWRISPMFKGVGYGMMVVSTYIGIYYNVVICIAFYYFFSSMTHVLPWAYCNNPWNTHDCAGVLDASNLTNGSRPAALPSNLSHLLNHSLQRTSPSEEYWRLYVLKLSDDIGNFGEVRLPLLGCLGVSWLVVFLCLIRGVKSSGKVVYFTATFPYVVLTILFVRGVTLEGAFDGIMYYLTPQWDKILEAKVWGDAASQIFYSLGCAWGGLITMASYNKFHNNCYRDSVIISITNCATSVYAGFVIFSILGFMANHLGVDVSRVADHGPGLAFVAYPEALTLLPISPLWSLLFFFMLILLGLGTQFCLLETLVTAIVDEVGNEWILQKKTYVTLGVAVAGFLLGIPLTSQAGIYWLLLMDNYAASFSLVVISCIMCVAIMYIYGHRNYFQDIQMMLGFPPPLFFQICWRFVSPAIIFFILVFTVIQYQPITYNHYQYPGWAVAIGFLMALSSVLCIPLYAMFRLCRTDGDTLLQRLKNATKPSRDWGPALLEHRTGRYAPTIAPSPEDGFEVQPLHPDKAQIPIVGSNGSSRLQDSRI
Assay: Glycine uptake inhibition experiment ([3H]glycine uptake)
Type: cell-based
Settings: GlyT1
How it was run: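 T98G glioma cells expressing human GlyT1 were pretreated 10 min with compound in HEPES buffer pH 7.4 (0.2% BSA), then incubated with compound plus 250 nM final [3H]glycine for 15 min at room temperature. Intracellular radioactivity was counted after NaOH lysis; 10 μM ALX5407 defined non-specific uptake. IC50 came from 10^−9–10^−5 M curves.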

SMILES | pIC50
O=C(NC(c1cccc(-c2cccnc2)c1)C1(O)CCCC1)c1nccc(C(F)(F)F)c1Cl (stereo not drawn) [Compound 20, 3-chloro-N-{(1-hydroxycyclopentyl)[3-(pyridin-3-yl)phenyl]methyl}-4-(trifluoromethyl)pyridine-2-carboxamide] | 7.77
O=C(NC(c1ccccc1Cl)[C@]1(O)CC[C@@H](F)CC1)c1ccnc(C(F)(F)F)c1Cl (single isomer, unassigned) [Compound 211, 3-chloro-N-[(2-chlorophenyl)(cis-4-fluoro-1-hydroxycyclohexyl)methyl]-2-(trifluoromethyl)pyridine-4-carboxamide] | 6.77
O=C(NC(c1ccccc1Br)C1(O)CCCC1)c1nccc(C(F)(F)F)c1Cl (stereo not drawn) [Compound 32, N-[(2-bromophenyl)(1-hydroxycyclopentyl)methyl]-3-chloro-4-(trifluoromethyl)pyridine-2-carboxamide] | 7.22
CCn1cc(-c2cccc(C(NC(=O)c3cccc(F)c3Cl)C3(O)CCC(F)(F)CC3)c2)cn1 (stereo not drawn) [Compound 209, 2-chloro-N-{(4,4-difluoro-1-hydroxycyclohexyl)[3-(1-ethyl-1H-pyrazol-4-yl)phenyl]methyl}-3-fluorobenzamide] | 5.92
O=C(NC(c1ccc(F)c(Cl)c1)C1(O)CCCC1)c1nccc(C(F)(F)F)c1Cl (stereo not drawn) [Compound 93, 3-chloro-N-{(3-chloro-4-fluorophenyl)(1-hydroxycyclopentyl)methyl}-4-(trifluoromethyl)pyridine-2-carboxamide] | 6.37
O=C(NC(c1ccc(F)cc1Cl)C1(O)CCCC1)c1nccc(C(F)(F)F)c1Cl (single isomer, unassigned) [Compound 100, 3-chloro-N-[(2-chloro-4-fluorophenyl)(1-hydroxycyclopentyl)methyl]-4-(trifluoromethyl)pyridine-2-carboxamide] | 7.23
O=C(NC(c1cccc(F)c1Cl)[C@]1(O)CC[C@@H](F)CC1)c1c(Cl)nc2ccccn12 (single isomer, unassigned) [Compound 262, 2-chloro-N-[(2-chloro-3-fluorophenyl)(cis-4-fluoro-1-hydroxycyclohexyl)methyl]imidazo[1,2-a]pyridine-3-carboxamide] | 5.06
O=C(NC(c1cc(Cl)ccc1Cl)C1(O)CCC(F)(F)CC1)c1nccc(C(F)(F)F)c1Cl (stereo not drawn) [Compound 148, 3-chloro-N-[(2,5-dichlorophenyl)(4,4-difluoro-1-hydroxycyclohexyl)methyl]-4-(trifluoromethyl)pyridine-2-carboxamide] | 6.59
O=C(NC(c1cccc(Br)c1)C1(O)CCCCC1)c1nccc(C(F)(F)F)c1Cl (single isomer, unassigned) [Compound 42, N-[(3-bromophenyl)(1-hydroxycyclohexyl)methyl]-3-chloro-4-(trilfuoromethyl)pyridine-2-carboxamide] | 7.42
O=C(NC(c1cccc(Cl)c1)C1(O)CCC(F)(F)CC1)c1nccc(C(F)(F)F)c1Cl (single isomer, unassigned) [Compound 166, 3-chloro-N-[(3-chlorophenyl)(4,4-difluoro-1-hydroxycyclohexyl)methyl]-4-(trifluoromethyl)pyridine-2-carboxamide] | 6.74
O=C(NC(c1cc(Cl)ccn1)C1(O)CCC(F)(F)CC1)c1nccc2ccccc12 (single isomer, unassigned) [Compound 349, N-[(4-chloropyridin-2-yl)(4,4-difluoro-1-hydroxycyclohexyl)methyl]isoquinoline-1-carboxamide] | 5.96
O=C(NC(c1ccccc1Cl)C1(O)CCC(F)(F)CC1)c1nccc(C(F)(F)F)c1Cl (single isomer, unassigned) [Compound 156, 3-chloro-N-[(2-chlorophenyl)(4,4-difluoro-1-hydroxycyclohexyl)methyl]-4-(trifluoromethyl)pyridine-2-carboxamide] | 5.74
CCn1cc(-c2cccc(C(NC(=O)c3cc(C(F)(F)F)ccc3C)C3(O)CCC(F)(F)CC3)c2)cn1 (stereo not drawn) [Compound 179, N-{(4,4-difluoro-1-hydroxycyclohexyl)[3-(1-ethyl-1H-pyrazol-4-yl)phenyl]methyl}-2-methyl-5-(trifluoromethyl)benzamide] | 6.21
CS(=O)(=O)c1ccc(C(F)(F)F)cc1C(=O)NC(c1cc(Cl)ccn1)[C@]1(O)CC[C@@H](F)CC1 (single isomer, unassigned) [Compound 396, N-[(4-chloropyridin-2-yl)(cis-4-fluoro-1-hydroxycyclohexyl]methyl]-2-(methylsulfonyl)-5-(trifluoromethyl)benzamide] | 6.54
N#Cc1ccc(-c2cccc(C(NC(=O)c3cccc(C(F)(F)F)c3Cl)C3(O)CCCC3)c2)cc1 (stereo not drawn) [Compound 5, 2-chloro-N-[(4′-cyanobiphenyl-3-yl)(1-hydroxycyclopentyl)methyl]-3-(trifluoromethyl)benzamide] | 6.06
CCn1cc(-c2cccc(C(NC(=O)c3nccc(C(F)(F)F)c3Cl)C3(O)CCC(F)(F)CC3)c2)cn1 (single isomer, unassigned) [Compound 92, 3-chloro-N-{(4,4-difluoro-1-hydroxycyclohexyl)[3-(1-ethyl-1H-pyrazol-4-yl)phenyl]methyl}-4-(trifluoromethyl)pyridine-2-carboxamide] | 7.57

Other lines, results leading:

pIC50 | SMILES
5.72 | Cc1ccc(-c2ncccn2)c(C(=O)NC(c2cccc(F)c2Cl)[C@]2(O)CC[C@@H](F)CC2)n1 (single isomer, unassigned) [Compound 284, N-[(2-chloro-3-fluorophenyl)(cis-4-fluoro-1-hydroxycyclohexyl)methyl]-6-methyl-3-(pyrimidin-2-yl)pyridine-2-carboxamide]
6.05 | O=C(NC(c1ccc(Cl)nc1)[C@]1(O)CC[C@@H](F)CC1)c1nccc(C(F)(F)F)c1Cl (single isomer, unassigned) [Compound 291, 3-chloro-N-[(6-chloropyridin-3-yl)(cis-4-fluoro-1-hydroxycyclohexyl)methyl]-4-(trifluoromethyl)pyridine-2-carboxamide]
6.51 | O=C(NC(c1cccc(-n2nccn2)c1)C1(O)CCCC1)c1nccc(C(F)(F)F)c1Cl (stereo not drawn) [Compound 79, 3-chloro-N-{(1-hydroxycyclopentyl)[3-(2H-1,2,3-triazol-2-yl)phenyl]methyl}-4-(trifluoromethyl)pyridine-2-carboxamide]
6.85 | O=C(NC(c1cccc(Cl)c1)C1(O)CCCC1)c1ccnc(C(F)(F)F)c1Cl (single isomer, unassigned) [Compound 185, 3-chloro-N-[(3-chlorophenyl)(1-hydroxycyclopentyl)methyl]-2-(trifluoromethyl)pyridine-4-carboxamide]
5.41 | O=C(NC(c1cccc(-n2cccn2)c1)C1(O)CCCC1)c1nccc(C(F)(F)F)c1Cl (single isomer, unassigned) [Compound 83, 3-chloro-N-{(1-hydroxycyclopentyl)[3-(1H-pyrazol-1-yl)phenyl]methyl}-4-(trifluoromethyl)pyridine-2-carboxamide]
7.41 | O=C(NC(c1cccc(Cl)c1Cl)C1(O)CCCC1)c1nccc(C(F)(F)F)c1Cl (stereo not drawn) [Compound 107, 3-chloro-N-[(2,3-dichlorophenyl)(1-hydroxycyclopentyl)methyl]-4-(trifluoromethyl)pyridine-2-carboxamide]
5.96 | O=C1CCC(O)(C(NC(=O)c2nccc(C(F)(F)F)c2Cl)c2cccc(Cl)c2)C1 (stereo not drawn) [Compound 130, 3-chloro-N-[(3-chlorophenyl)(1-hydroxy-3-oxocyclopentyl)methyl]-4-(trifluoromethyl)pyridine-2-carboxamide]
5.77 | O=C(NC(c1ccc(Cl)cc1)C1(O)CCCC1)c1nccc(C(F)(F)F)c1Cl (stereo not drawn) [Compound 46, 3-chloro-N-[(4-chlorophenyl)(1-hydroxycyclopentyl)methyl]-4-(trifluoromethyl)pyridine-2-carboxamide]
5.96 | O=C(NC(c1cccc(F)c1Cl)[C@]1(O)CC[C@@H](F)CC1)c1c(F)cccc1Cl (single isomer, unassigned) [Compound 301, 2-chloro-N-[(2-chloro-3-fluorophenyl)(cis-4-fluoro-1-hydroxycyclohexyl)methyl]-6-fluorobenzamide]
6.89 | O=C(NC(c1cccc(Cl)c1F)C1(O)CCC(F)CC1)c1ccnc(C(F)(F)F)c1Cl (single isomer, unassigned) [Compound 201, 3-chloro-N-[(3-chloro-2-fluorophenyl)(4-fluoro-1-hydroxycyclohexyl)methyl]-2-(trifluoromethyl)pyridine-4-carboxamide]
6.68 | O=C(NC(c1cccc(-c2ccccn2)c1)C1(O)CCC(F)(F)CC1)c1nccc(C(F)(F)F)c1Cl (stereo not drawn) [Compound 143, 3-chloro-N-{(4,4-difluoro-1-hydroxycyclohexyl)[3-(pyridin-2-yl)phenyl]methyl}-4-(trifluoromethyl)pyridine-2-carboxamide]
